Data reported in paper PMC12047801, “Disrupting the OTUD4-USP7 deubiquitinase complex to suppress herpesvirus replication: a novel antiviral strategy” (PLOS Pathogens, 2025).
Values joined by “and” are separate entries in the source; they are usually repeats but may differ in a detail not shown here. Identical values can stand only once. Like-named read-outs stand apart in the source and are kept apart here. Where a SMILES comes first, the peptide text is derived from it.

Key:
[1] = system: KSHV lytic reactivation in SLK.iBAC-GFP cells; format: cell-based; conditions: for IC50: Dox + sodium butyrate, mean ± s.d. of N = 3
Experimental: (A) Graphical illustration showing the rationale underlying our peptide design. (B) Surface Plasmon Resonance (SPR) analysis assessing the interaction of the USP7-TRAF domain with the designed peptides p2 and p8. (C) SLK.iBAC-GFP cells were induced with doxycycline (Dox, 1 μg/mL) and sodium butyrate (0.5 mM) in the presence of the Tat fusion peptides (100 μM). All the peptides were fused to an N-terminal Tat47-57 peptide ([…]) via a flexible GG linker. The supernatants containing infectious virions were collected 48 h post-induction and used to infect HEK293T cells. KSHV infectious units were calculated based on the percentage of GFP-positive cells determined by flow cytometry. Data are mean ± s.d. of N = 3 independent biological replicates. (D) SLK.iBAC-GFP cells were induced with doxycycline (Dox, 1 μg/mL) and sodium butyrate (0.5 mM) in the presence of increasing amount of p8 (0, 10, 50, 100 μM). KSHV infectious units were determined 48 h post-induction. Data are mean ± s.d. of N = 3 independent biological replicates. […] Data are mean ± s.d. of N = 3 independent biological replicates. […] Cell viability was assessed by measuring ATP levels 48 h post-induction. Data are mean ± s.d. of N = 3 independent biological replicates.
Peptides p1 to p12 (S1A Fig) were synthesized by Sangon Biotech (Shanghai, China) with 95% purity. The Tat-fused peptides in Fig 1C consisted of the corresponding peptides conjugated to the Tat47-57 peptide ([…]) and two glycine linker residues (QYAOBIO, Suzhou, China). The peptides p8-DRI (nssqsasqnvpprrrqrrkkrGy) and p2-DRI (iesndedavepprrrqrrkkrGy) were synthesized using D-amino acids in a retro-reversed sequence with 95% purity (QYAOBIO, Suzhou, China). The peptide p8-m ([…]) was synthesized with 95% purity (QYAOBIO, Suzhou, China). All the peptides were acetylated at the N-terminus and amidated at the C-terminus to mimic the native peptide structure. The peptides were dissolved in PBS to prepare 1 mM stock solutions for in vitro experiments and 5 mg/ml stock solutions for in vivo experiments.
SLK.iBAC-GFP cells were treated with Dox (1 μg/ml) and sodium butyrate (0.5 mM) to induce lytic reactivation in the presence of indicated peptides (100 μM). The supernatants were collected at the specified time points and used to infect HEK293T cells at appropriate dilutions. The infected cells were collected, fixed, and analyzed by flow cytometry 24 h post-infection. FlowJo 10.0 software was used to analyze the data, and KSHV infectious units were quantified based on the percentage of GFP-positive cells.

[2] = system: interaction between OTUD4 and USP7-TRAF; assay: GST pull-down competition assay, human USP7-TRAF and FLAG-OTUD4; format: binding; conditions: 100 μM, 4 h
USP7-TRAF domain = target: T1, USP7-TRAF domain (Homo sapiens, UniProt Q93009); assay: Surface plasmon resonance (SPR) analysis of peptide binding to USP7-TRAF
T1 construct: The TRAF domain of human and murine USP7 (1-208 aa) was subcloned into pGEX-6p-1; GST (N); made in house; host or cells: E. coli BL21 (DE3)
T1 sequence (Q93009 1-208): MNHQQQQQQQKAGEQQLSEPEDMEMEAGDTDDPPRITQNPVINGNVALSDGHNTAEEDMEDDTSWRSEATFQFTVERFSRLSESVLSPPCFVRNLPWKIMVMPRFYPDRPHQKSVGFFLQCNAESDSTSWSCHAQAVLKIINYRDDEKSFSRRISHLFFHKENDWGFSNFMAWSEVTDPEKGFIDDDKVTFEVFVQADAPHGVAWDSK

MHV68 in C57BL/6 mice [3] = format: in vivo; conditions: Fig 5E, 5 mg/kg, 5 days post-infection
Experimental: (§1) Fig 5 P8-DRI restricts MHV68 Infection in vivo. (A-B) MLF cells were infected with MHV68 (MOI, 0.01) and treated with the indicated peptides (100 µM). Viral titer was determined by plaque assays 48 h post-infection (A). Viral gene expression was assessed by RT-qPCR (B). Data are mean ± s.d. of N = 3 independent biological replicates. […] Data are mean ± s.d. of N = 3 independent biological replicates. (D-E) C57BL/6 mice were intranasally inoculated with MHV68 (4000 PFU) and administrated with p8-DRI (5 mg/kg of body weight) or vehicle control (n = 6 per group). Viral loads in lung tissues were quantified at 5 days post-infection (D). Viral gene expression in lung tissues was measured by RT-qPCR at 5 days post-infection (E). Data are mean ± s.d. of N = 6 independent biological replicates. (F) H&E staining of lung tissue sections from MHV68-infected mice treated with p8-DRI or vehicle 5 days post-infection. Scale bars, 500 µm (left) and 100 µm (right). […] Viral titers in lung tissues were determined at 5 days post-infection (G). Viral gene expression in lung tissues was assessed by RT-qPCR (H). […] (I) H&E staining of lung tissue sections from MHV68-infected Otud4^^fl/fl Cre-ERT2^-/- and Otud4^^fl/fl Cre-ERT2^+/- mice treated with p8-DRI or vehicle control, analyzed at 5 days post-infection. […]

[4] = system: MHV68 in Otud4fl/fl Cre-ERT2 mice; format: in vivo; conditions: 5 mg/kg
[5] = system: lung inflammation in MHV68-infected C57BL/6 mice; format: in vivo; conditions: Fig 5F, 5 mg/kg, 5 days post-infection, vs vehicle
Experimental: as §1, with “replicates.” for “replicates. (F) H&E staining of lung tissue sections from MHV68-infected mice treated with p8-DRI or vehicle 5 days post-infection. Scale bars, 500 µm (left) and 100 µm (right).”
Mouse lung tissue samples were fixed in 10% formalin solution (Sigma) overnight. […] The tissue sections were stained using standard H&E staining protocols and analyzed microscopically.

[6] = system: lung pathology in MHV68-infected Otud4fl/fl Cre-ERT2 mice; format: in vivo; conditions: for Histological score of lungs: Fig. 5I
MHV68 in C57BL/6 mice [7] = assay: Viral loads/titers in lungs of MHV68-infected C57BL/6 mice; format: in vivo; conditions: 5 days post-infection
KSHV lytic replication = conditions: cited from earlier work
Text: In KSHV-associated cancers, such as Kaposi’s sarcoma (KS), tumor cells predominantly display latent viral infection, while spontaneous reactivation takes place in only 1–3% of infected cells. […] Despite the low percentage of lytic cells, lytic replication plays a critical role in KS pathogenesis. Firstly, the production and release of infectious KSHV particles sustain the latently infected cell population by compensating for episomal loss duri ... || KSHV is the etiological agent of Kaposi’s sarcoma (KS) and primary effusion lymphoma (PEL), and contributes to other malignancies such as multicentric Castleman’s disease (MCD). […] Therefore, KSHV antiviral treatments, including those aimed at inhibiting lytic replication, are actively being developed. […] MMV1645152, identified from the Medicines for Malaria Venture (MMV) Pandemi ...

[8] = system: Kaposi's sarcoma (KS) progression; conditions: cited from earlier work

With Ac-YGRKKRRQRRRGGEVADEDNSEI-NH2 [p2] the “IC50, KSHV lytic reactivation (in words)” value ([1]; SLK.iBAC-GFP cells, Tat-fused peptide) was “could not be determined due to its low antiviral activity”, the “Inhibition of KSHV lytic reactivation (in words)” value ([1]; Tat-fused peptides, 100 μM or dose series, 48 h post-induction) was “no significant inhibition” and the “Disruption of OTUD4/USP7-TRAF interaction (in words)” value [2] was “failed to disrupt the interaction between USP7-TRAF and OTUD4”. For the same compound, the “Binding to the USP7-TRAF domain (in words)” value (USP7-TRAF domain) was “specifically bound to the USP7-TRAF domain”.
Compound CC[C@@H](C)[C@@H](NC(C)=O)C(=O)N[C@H](CCC(=O)O)C(=O)N[C@H](CO)C(=O)N[C@H](CC(N)=O)C(=O)N[C@H](CC(=O)O)C(=O)N[C@H](CCC(=O)O)C(=O)N[C@H](CC(=O)O)C(=O)N[C@H](C)C(=O)N[C@@H](C(=O)N[C@H](CCC(=O)O)C(=O)N1CCC[C@@H]1C(=O)N1CCC[C@@H]1C(=O)N[C@H](CCCNC(=N)N)C(=O)N[C@H](CCCNC(=N)N)C(=O)N[C@H](CCCNC(=N)N)C(=O)N[C@H](CCC(N)=O)C(=O)N[C@H](CCCNC(=N)N)C(=O)N[C@H](CCCNC(=N)N)C(=O)N[C@H](CCCCN)C(=O)N[C@H](CCCCN)C(=O)N[C@H](CCCNC(=N)N)C(=O)NCC(=O)N[C@H](Cc1ccc(O)cc1)C(N)=O)C(C)C [p2-DRI] (HELM PEPTIDE1{[ac].[dI].[dE].[dS].[dN].[dD].[dE].[dD].[dA].[dV].[dE].[dP].[dP].[dR].[dR].[dR].[dQ].[dR].[dR].[dK].[dK].[dR].G.[dY].[am]}$$$$V2.0) has an IC50 ([1]; SLK.iBAC-GFP cells) of 67.4 ± 34.1 µM.
In the case of CC(=O)N[C@H](CC(N)=O)C(=O)N[C@H](CO)C(=O)N[C@H](CO)C(=O)N[C@H](CCC(N)=O)C(=O)N[C@H](CO)C(=O)N[C@H](C)C(=O)N[C@H](CO)C(=O)N[C@H](CCC(N)=O)C(=O)N[C@H](CC(N)=O)C(=O)N[C@@H](C(=O)N1CCC[C@@H]1C(=O)N1CCC[C@@H]1C(=O)N[C@H](CCCNC(=N)N)C(=O)N[C@H](CCCNC(=N)N)C(=O)N[C@H](CCCNC(=N)N)C(=O)N[C@H](CCC(N)=O)C(=O)N[C@H](CCCNC(=N)N)C(=O)N[C@H](CCCNC(=N)N)C(=O)N[C@H](CCCCN)C(=O)N[C@H](CCCCN)C(=O)N[C@H](CCCNC(=N)N)C(=O)NCC(=O)N[C@H](Cc1ccc(O)cc1)C(N)=O)C(C)C [p8-DRI] (HELM PEPTIDE1{[ac].[dN].[dS].[dS].[dQ].[dS].[dA].[dS].[dQ].[dN].[dV].[dP].[dP].[dR].[dR].[dR].[dQ].[dR].[dR].[dK].[dK].[dR].G.[dY].[am]}$$$$V2.0), the IC50 ([1]; SLK.iBAC-GFP cells) is reported as 9.23 ± 1.29 µM, the “MHV68 viral gene transcription (ORF50, ORF9, ORF25) in lungs (in words)” value (MHV68 in C57BL/6 mice [3]) is reported as “significantly reduced” and the “Antiviral effect in OTUD4-deficient mice (in words)” value ([4]; Figs 5G-5I, Otud4fl/fl Cre-ERT2+/- + tamoxifen) is reported as “abolished in OTUD4-deficient mice”. The “Viral titers in lungs of OTUD4-replete mice (in words)” value ([4]; Otud4fl/fl Cre-ERT2-/-, vs vehicle) was “lower viral titers in lung tissues”, the “Lung inflammation and immune cell infiltration (in words)” value [5] was “less inflammation and immune cell infiltration in the lungs” and the “Histological score of lungs” value ([6]; OTUD4 KO mice, replicate 1) was 1. For the same compound, the “Histological score of lungs” value ([6]; OTUD4 KO mice, replicate 2) was 1, the “Histological score of lungs” value ([6]; OTUD4 KO mice, replicate 3) was 1 and the “Histological score of lungs” value ([6]; OTUD4 KO mice, replicate 4) was 2. The “Histological score of lungs” value ([6]; OTUD4 KO mice, replicate 5) was 3, the “Histological score of lungs” value ([6]; OTUD4 WT mice, replicate 1) was 1 and the “Histological score of lungs” value ([6]; OTUD4 WT mice, replicate 2) was 1. For the same compound, the “Histological score of lungs” value ([6]; OTUD4 WT mice, replicate 3) was 1, the “Histological score of lungs” value ([6]; OTUD4 WT mice, replicate 4) was 2 and the “Histological score of lungs” value ([6]; OTUD4 WT mice, replicate 5) was 3. The “Viral pathology in OTUD4-replete mice (in words)” value ([6]; Otud4fl/fl Cre-ERT2-/-, 5 mg/kg, vs vehicle) was “reduced viral pathology”, the “Binding affinity for USP7-TRAF relative to p8 (in words)” value (USP7-TRAF domain; N = 3 (S5H Fig)) was “remained comparable to that of p8” and the “Viral titers in lung tissues (in words)” value (MHV68 in C57BL/6 mice [7]; Fig 5D, 5 mg/kg, vs vehicle) was “lower viral titers in lung tissues”. The “Viral loads in lung tissues” value (MHV68 in C57BL/6 mice [7]; Fig. 5D, 5 mg/kg p8-DRI, MHV68 4000 PFU intranasal, single animals, one line per mouse (n = 6)) was 12.8424 and 18.8481 and 2.1041 and 7.7972 and 13.617 and 0.6389.
In the case of Nc1nc(O)c2ncn(COC(CO)CO)c2n1 [Ganciclovir], the “Inhibition of KSHV lytic replication (in words)” value (KSHV lytic replication; nucleoside analogue) is listed as “inhibits KSHV lytic replication” and the “Prevention of KS progression (in words)” value [8] is listed as “remarkable efficacy in randomized clinical trials for preventing KS progression”.
In the case of Nc1nc(O)c(Br)c(-c2cccc(Cl)c2)n1 [MMV1645152], the “Inhibition of KSHV lytic replication (in words)” value (KSHV lytic replication) is given as “effectively blocking KSHV lytic replication”.
For Cc1c(O)cccc1C(=O)N[C@@H](CSc1ccccc1)[C@H](O)CN1C[C@H]2CCCC[C@H]2C[C@H]1C(=O)NC(C)(C)C [Nelfinavir], the “Inhibition of KSHV virion production (in words)” value (KSHV lytic replication) is given as “prevents mature virion production”.
In the case of CCc1cc(-c2n[nH]c(C)c2-c2ccc3c(c2)OCCO3)c(O)cc1O [CCT018159], the “Inhibition of KSHV lytic replication and virion production (in words)” value (KSHV lytic replication; UAP56 ATPase inhibitor) is listed as “successfully blocks KSHV lytic replication and infectious virion production”.
